Assay results published in patent US10059717B2, “Urea compounds containing 3,4-dihydropyrimido[4,5-D]pyrimidin-2(1H)-one skeleton as protein kinase inhibitors” (KOREA INSTITUTE OF SCIENCE AND TECHNOLOGY, priority 2016, dated 2018).

Legend:
U937 (N-Ras WT) = assay: Proliferation inhibitory activity, U937; type: cell-based; conditions: Homo sapiens, U-937; U937 (N-Ras WT) cell line; read-out: Proliferation inhibitory efficacy (GI50, μM) U937 (N-Ras WT)
Procedure: (§1) GI50 values were calculated by measuring the proliferation inhibitory efficacy of the compounds of the present invention on mt-NRAS (G12D) Ba/F3, U937 (wt-NRAS) and OCI-AML3 (mt-NRAS) cell lines.

FER = FER (Homo sapiens, UniProt P16591); assay: Kinase panel biochemical assay; conditions: 1 μM single concentration, read-out: % residual enzyme activity
Procedure: (§2) In order to measure the protein kinase inhibitory activity (% inhibition) of the compounds of the present invention, biochemical assays were performed on the full kinase panel listed in the following Table 1.
(§3) As an test compound, 1-(3-(7-((6-(4-ethylpiperazine-1-carbonyl)pyridin-3-yl)amino)-1-methyl-2-oxo-1,4-dihydropyrimido[4,5-d]pyrimidin-3(2H)-yl)-4-methylphenyl)-3-(2-methoxyphenyl)urea (Compound No. 14) was used. The kinase inhibitory efficacy was measured upon treatment with a 1 μM single concentration of the test compound to calculate % residual enzyme activity value.
(§4) ABL1, FGFR2, TAOK2/TAO1, EPHA5, EPHB2, EPHB3, RET, LYN B, EPHA2, FRK/PTK5, EPHA8, LCK, EPHB4, FYN, KHS/MAP4K5, DDR1, EPHA3, P38a/MAPK14, EPHA4, FMS, EPHB1, HCK, FGFR1, ABL2/ARG, EPHA6, c-Src, ACK1, FLT4NEGFR3, ERBB4/HER4, DDR2, KDRNEGFR2, LYN, ZAK/MLTK, YES/YES1, BLK, FGR, MLCK2/MYLK2, TAOK1, BMX/ETK, BTK, EPHA1, JAK1, P38b/MAPK11, TIE2/TEK, FLT1NEGFR1, TXK, SRMS, RAF1, SIK1, MLK3/MAP3K11, PEAK1, TRKA, EPHA7, GLK/MAP4K3, MLK2/MAP3K10, TEC, CSK, TRKC, FES/FPS, SIK2, FGFR3, BRK, YSK4/MAP3K19, ARAF, PDGFRb, TNK1, GCK/MAP4K2, PDGFRa, TNIK, TAK1, ERBB2/HER2, LIMK1, HIPK4, FER, EGFR, JAK2, HPK1/MAP4K1, TRKB, RIPK3, LOK/STK10, LIMK2, MLK1/MAP3K9, BRAF, MEKK3, MEK5, STK32B/YANK2, FGFR4, MEKK2, SLK/STK2, FLT3, PKAcg, TAOK3/JIK, TYRO3/SKY, SIK3, IR, LRRK2, PYK2, NEK11, p70S6K/RPS6KB1, LATS2.

EPHB4 = EPHB4 (Homo sapiens, UniProt P54760); assay: Kinase panel biochemical assay; conditions: 1 μM single concentration, read-out: % residual enzyme activity
Procedure: as §2, §3, §4

BMX/ETK = BMX/ETK (Homo sapiens, UniProt P51813); assay: Kinase panel biochemical assay; conditions: 1 μM single concentration, read-out: % residual enzyme activity
Procedure: as §2, §3, §4

TAOK2/TAO1 = TAOK2/TAO1 (Homo sapiens, UniProt Q9UL54); assay: Kinase panel biochemical assay; conditions: 1 μM single concentration, read-out: % residual enzyme activity
Procedure: as §2, §3, §4

EPHA1 = EPHA1 (Homo sapiens, UniProt P21709); assay: Kinase panel biochemical assay; conditions: 1 μM single concentration, read-out: % residual enzyme activity
Procedure: as §2, §3, §4

EPHB3 = EPHB3 (Homo sapiens, UniProt P54753); assay: Kinase panel biochemical assay; conditions: 1 μM single concentration, read-out: % residual enzyme activity
Procedure: as §2, §3, §4

TRKA = TRKA (Homo sapiens, UniProt P04629); assay: Kinase panel biochemical assay; conditions: 1 μM single concentration, read-out: % residual enzyme activity
Procedure: as §2, §3, §4

EPHA6 = EPHA6 (Homo sapiens, UniProt Q9UF33); assay: Kinase panel biochemical assay; conditions: 1 μM single concentration, read-out: % residual enzyme activity
Procedure: as §2, §3, §4

SIK1 = SIK1 (Homo sapiens, UniProt P57059); assay: Kinase panel biochemical assay; conditions: 1 μM single concentration, read-out: % residual enzyme activity
Procedure: as §2, §3, §4

LCK = LCK (Homo sapiens, UniProt P06239); assay: Kinase panel biochemical assay; conditions: 1 μM single concentration, read-out: % residual enzyme activity
Procedure: as §2, §3, §4

LIMK2 = LIMK2 (Homo sapiens, UniProt P53671); assay: Kinase panel biochemical assay; conditions: 1 μM single concentration, read-out: % residual enzyme activity
Procedure: as §2, §3, §4

GCK = target: T1, GCK (Homo sapiens, UniProt Q12851); assay: GCK kinase inhibitory activity; type: biochemical; conditions: read-out: Kinase inhibitory efficacy, GI50 GCK
T1 sequence (Q12851 1-820): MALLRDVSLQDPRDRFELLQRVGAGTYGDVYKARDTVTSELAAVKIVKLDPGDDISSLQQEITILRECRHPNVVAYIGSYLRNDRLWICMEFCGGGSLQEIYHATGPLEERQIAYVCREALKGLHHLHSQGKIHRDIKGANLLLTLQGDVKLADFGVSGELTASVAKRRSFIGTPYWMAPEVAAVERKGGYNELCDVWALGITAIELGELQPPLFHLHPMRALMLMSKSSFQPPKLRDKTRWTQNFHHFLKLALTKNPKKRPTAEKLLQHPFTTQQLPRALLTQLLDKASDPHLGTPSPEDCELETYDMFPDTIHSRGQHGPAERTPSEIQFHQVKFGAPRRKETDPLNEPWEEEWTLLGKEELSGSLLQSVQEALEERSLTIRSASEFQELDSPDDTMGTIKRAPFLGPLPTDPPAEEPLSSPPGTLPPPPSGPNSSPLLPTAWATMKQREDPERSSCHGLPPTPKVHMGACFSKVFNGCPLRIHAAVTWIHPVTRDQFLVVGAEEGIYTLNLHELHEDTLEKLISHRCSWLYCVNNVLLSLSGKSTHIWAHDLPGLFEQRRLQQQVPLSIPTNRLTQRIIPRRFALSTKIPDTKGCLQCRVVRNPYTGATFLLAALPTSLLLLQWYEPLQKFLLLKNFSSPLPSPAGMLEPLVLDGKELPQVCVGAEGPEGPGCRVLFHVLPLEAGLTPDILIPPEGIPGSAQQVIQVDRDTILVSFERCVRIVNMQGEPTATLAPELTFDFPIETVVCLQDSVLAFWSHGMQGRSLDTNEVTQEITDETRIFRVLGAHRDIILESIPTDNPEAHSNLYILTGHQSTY
Procedure: (§5) GI50 values were calculated by measuring the inhibitory efficacy of the compounds of the present invention against both GCK and ACK1 kinases.

ACK1 = ACK1 (Homo sapiens, UniProt Q07912); assay: ACK1 kinase inhibitory activity; type: biochemical; conditions: read-out: Kinase inhibitory efficacy, GI50 ACK1
Procedure: as §5

OCI-AML3 (N-Ras Q61L) = assay: Proliferation inhibitory activity, OCI-AML3; type: cell-based; conditions: Homo sapiens, OCI-AML-3; OCI-AML3 (N-Ras Q61L) cell line; read-out: Proliferation inhibitory efficacy (GI50, μM) OCI-AML3 (N-Ras Q61L)
Procedure: as §1
Accordingly, the compounds of the present invention are particularly effective as a therapeutic agent for acute myelogenous leukemia (AML).

Sequence of ACK1 (Q07912 whole entry): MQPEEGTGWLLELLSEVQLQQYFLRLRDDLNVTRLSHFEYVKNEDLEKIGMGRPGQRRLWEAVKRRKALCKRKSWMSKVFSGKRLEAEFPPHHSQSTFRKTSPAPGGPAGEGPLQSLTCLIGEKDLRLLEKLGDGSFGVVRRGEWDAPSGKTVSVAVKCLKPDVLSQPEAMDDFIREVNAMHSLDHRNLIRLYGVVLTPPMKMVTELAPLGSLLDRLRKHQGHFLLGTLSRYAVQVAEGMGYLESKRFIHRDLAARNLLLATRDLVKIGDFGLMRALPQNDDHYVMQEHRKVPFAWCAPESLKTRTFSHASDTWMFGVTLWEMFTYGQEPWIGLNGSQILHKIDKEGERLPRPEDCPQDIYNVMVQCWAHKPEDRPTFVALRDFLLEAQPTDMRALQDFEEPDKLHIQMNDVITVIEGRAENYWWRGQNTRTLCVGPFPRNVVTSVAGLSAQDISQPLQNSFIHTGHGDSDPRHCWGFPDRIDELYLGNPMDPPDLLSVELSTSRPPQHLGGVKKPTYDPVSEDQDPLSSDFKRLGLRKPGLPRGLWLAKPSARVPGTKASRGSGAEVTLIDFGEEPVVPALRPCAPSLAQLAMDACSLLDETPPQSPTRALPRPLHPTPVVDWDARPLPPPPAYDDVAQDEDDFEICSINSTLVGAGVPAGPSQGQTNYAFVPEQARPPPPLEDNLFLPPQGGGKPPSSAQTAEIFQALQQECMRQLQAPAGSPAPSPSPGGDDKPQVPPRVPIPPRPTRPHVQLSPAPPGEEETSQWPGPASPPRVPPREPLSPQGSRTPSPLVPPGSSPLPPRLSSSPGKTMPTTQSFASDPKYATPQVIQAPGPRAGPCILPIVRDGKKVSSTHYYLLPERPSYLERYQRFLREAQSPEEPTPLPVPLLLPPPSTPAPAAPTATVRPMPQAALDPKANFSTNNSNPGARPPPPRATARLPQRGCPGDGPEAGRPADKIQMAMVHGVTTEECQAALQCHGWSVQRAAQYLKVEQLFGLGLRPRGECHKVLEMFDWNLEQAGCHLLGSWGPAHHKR
Sequence of EPHB4 (P54760 16-987): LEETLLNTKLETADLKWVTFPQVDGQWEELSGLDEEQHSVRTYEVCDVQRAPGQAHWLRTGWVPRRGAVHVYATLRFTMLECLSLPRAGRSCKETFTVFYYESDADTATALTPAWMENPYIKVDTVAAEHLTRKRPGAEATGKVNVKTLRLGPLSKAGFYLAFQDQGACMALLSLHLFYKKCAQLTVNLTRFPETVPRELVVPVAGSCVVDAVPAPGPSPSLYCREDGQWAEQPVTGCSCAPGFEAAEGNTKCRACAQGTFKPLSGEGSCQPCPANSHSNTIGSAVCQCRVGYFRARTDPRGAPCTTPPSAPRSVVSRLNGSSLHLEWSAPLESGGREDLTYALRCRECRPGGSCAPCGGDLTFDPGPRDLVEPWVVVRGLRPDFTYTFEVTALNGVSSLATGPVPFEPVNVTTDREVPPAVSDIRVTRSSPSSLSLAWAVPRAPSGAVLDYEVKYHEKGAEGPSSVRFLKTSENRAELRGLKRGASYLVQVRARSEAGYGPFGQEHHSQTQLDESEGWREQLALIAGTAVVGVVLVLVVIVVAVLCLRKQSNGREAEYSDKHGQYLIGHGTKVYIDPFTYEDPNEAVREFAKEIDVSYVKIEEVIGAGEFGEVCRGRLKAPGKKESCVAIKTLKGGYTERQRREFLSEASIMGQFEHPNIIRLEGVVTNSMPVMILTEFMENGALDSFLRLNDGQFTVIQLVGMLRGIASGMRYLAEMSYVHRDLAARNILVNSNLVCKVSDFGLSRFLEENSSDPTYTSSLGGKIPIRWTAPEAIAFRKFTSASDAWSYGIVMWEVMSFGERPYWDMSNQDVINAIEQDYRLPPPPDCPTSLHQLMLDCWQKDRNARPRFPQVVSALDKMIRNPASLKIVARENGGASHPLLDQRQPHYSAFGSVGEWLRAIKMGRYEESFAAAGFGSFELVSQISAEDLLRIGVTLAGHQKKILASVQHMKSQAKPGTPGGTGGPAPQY
Sequence of FER (P16591 whole entry): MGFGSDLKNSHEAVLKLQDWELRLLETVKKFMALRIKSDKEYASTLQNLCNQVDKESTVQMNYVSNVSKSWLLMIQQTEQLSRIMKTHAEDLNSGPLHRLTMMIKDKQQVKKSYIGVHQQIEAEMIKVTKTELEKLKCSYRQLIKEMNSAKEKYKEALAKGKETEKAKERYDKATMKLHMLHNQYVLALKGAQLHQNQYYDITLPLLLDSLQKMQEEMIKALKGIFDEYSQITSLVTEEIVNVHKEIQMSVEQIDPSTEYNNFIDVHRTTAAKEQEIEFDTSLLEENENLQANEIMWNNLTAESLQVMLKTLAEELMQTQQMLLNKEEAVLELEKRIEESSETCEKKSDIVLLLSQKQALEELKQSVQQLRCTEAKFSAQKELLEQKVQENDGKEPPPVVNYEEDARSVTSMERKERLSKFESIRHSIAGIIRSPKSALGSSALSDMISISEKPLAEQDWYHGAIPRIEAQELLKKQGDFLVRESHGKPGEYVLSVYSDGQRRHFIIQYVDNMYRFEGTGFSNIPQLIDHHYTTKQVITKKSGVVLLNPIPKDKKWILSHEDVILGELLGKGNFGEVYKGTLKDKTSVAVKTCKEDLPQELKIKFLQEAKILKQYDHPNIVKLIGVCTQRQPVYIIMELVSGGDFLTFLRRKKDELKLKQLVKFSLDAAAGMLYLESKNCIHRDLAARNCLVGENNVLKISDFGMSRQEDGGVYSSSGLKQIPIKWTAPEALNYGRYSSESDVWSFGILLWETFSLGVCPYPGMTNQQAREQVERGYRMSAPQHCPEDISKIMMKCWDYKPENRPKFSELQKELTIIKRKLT
Sequence of EPHB3 (P54753 34-998): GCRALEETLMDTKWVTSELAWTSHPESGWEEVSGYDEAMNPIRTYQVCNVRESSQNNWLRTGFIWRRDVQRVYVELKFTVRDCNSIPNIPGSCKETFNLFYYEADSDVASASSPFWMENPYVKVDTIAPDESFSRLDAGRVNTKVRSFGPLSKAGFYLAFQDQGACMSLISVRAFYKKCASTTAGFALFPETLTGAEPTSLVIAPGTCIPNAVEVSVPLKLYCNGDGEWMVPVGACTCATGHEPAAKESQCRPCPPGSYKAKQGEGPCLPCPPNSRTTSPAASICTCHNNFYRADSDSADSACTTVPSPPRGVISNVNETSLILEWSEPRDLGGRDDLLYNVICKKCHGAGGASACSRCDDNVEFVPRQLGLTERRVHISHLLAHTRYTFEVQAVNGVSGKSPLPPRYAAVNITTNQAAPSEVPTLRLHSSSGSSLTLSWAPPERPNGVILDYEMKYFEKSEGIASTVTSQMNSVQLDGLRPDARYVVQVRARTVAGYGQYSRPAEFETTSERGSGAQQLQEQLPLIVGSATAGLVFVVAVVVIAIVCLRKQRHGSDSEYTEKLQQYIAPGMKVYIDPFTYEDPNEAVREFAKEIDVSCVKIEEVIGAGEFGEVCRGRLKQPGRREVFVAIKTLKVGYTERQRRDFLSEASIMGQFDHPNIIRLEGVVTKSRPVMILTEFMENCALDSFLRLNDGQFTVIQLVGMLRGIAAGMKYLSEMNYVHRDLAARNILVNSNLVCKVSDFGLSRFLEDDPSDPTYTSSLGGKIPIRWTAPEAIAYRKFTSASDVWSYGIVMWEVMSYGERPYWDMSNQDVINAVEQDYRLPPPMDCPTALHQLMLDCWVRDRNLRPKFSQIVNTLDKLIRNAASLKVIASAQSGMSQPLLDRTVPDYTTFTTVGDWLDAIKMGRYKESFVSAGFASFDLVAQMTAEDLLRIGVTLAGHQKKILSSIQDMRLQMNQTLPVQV
Sequence of EPHA6 (Q9UF33 23-1036): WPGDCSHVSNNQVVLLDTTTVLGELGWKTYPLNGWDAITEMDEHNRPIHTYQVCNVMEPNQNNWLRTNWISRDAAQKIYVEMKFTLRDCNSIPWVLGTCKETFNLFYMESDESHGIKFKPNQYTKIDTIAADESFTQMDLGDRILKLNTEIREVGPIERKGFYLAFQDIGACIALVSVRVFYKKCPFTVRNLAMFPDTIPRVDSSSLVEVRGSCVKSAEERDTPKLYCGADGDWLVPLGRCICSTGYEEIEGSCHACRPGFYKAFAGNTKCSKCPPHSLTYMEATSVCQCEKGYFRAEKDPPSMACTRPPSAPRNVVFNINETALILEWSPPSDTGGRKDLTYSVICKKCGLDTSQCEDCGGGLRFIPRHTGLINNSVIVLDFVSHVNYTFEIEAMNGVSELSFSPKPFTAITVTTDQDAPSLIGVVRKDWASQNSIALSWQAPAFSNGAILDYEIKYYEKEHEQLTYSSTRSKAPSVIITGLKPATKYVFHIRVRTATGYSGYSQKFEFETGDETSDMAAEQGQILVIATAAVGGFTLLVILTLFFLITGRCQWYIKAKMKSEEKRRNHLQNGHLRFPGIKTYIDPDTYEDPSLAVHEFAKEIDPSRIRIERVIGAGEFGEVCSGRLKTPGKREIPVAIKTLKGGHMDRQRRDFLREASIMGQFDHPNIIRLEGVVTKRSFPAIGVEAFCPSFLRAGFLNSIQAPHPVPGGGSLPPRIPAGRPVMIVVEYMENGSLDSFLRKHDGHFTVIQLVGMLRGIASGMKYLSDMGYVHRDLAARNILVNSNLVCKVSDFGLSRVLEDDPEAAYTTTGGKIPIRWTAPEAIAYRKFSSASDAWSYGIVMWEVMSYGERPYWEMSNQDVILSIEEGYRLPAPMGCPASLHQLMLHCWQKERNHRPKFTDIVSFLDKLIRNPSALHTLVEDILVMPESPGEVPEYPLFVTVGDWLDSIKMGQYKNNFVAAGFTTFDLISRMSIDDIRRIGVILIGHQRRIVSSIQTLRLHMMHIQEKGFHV

Structure (SMILES): CCN1CCN(C(=O)c2ccc(Nc3ncc4c(n3)N(C)C(=O)N(c3cc(NC(=O)Nc5ccccc5OC)ccc3C)C4)cn2)CC1 [Compound No. 14, 1-(3-(7-((6-(4-ethylpiperazin-1-carbonyl)pyridin-3-yl)amino)-1-methyl-2-oxo-1,4-dihydropyrimido[4,5-d]pyrimidin-3(2H)-yl)-4-methylphenyl)-3-(2-methoxyphenyl)urea]
- GI50 (U937 (N-Ras WT)): ≥ 5 µM
- remaining activity at 1 µM (FER): ≤ 30%
- remaining activity at 1 µM (EPHB4): ≤ 30%
- remaining activity at 1 µM (BMX/ETK): ≤ 30%
- remaining activity at 1 µM (TAOK2/TAO1): ≤ 30%
- remaining activity at 1 µM (EPHA1): ≤ 30%
- remaining activity at 1 µM (EPHB3): ≤ 30%
- remaining activity at 1 µM (TRKA): ≤ 30%
- remaining activity at 1 µM (EPHA6): ≤ 30%
- remaining activity at 1 µM (SIK1): ≤ 30%
- remaining activity at 1 µM (LCK): ≤ 30%
- remaining activity at 1 µM (LIMK2): ≤ 30%
- GI50 (GCK): < 30 nM
- GI50 (ACK1): < 30 nM
- GI50 (OCI-AML3 (N-Ras Q61L)): < 0.5 µM
